Molecules are shown by their SMILES.

In this test the test system is tau protein. In words: Tau protein in vitro degradation assay (Western blot, Tau-13 antibody). It counts as cell-based, human. Particulars: SK-N-SH cells; 72 hours of incubation; tested at 300 nM, 100 nM, 33 nM and 11 nM; Western blot, Tau-13 antibody. In outline: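 SK-N-SH cells, seeded ≥18 h beforehand, were incubated 72 h with tau PROTACs at 1000, 300 and 100 nM or at 300, 100, 33 and 11 nM. Lysates in protease-inhibitor buffer were resolved by SDS-PAGE; tau quantified by Western blot with Tau-13 antibody recognising all human tau forms.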
On the technique in general: A western blot detects proteins with antibodies after separation by electrophoresis.

With `O=C1CCC(N2C(=O)c3cc(F)c(OCCOCCOCCOCCOCCOc4ccc(-c5ccc6c(c5)[nH]c5ccncc56)cn4)cc3C2=O)C(=O)N1` (stereo not drawn) [Compound 81, 5-((14-((5-(5H-pyrido[4,3-b]indol-7-yl)pyridin-2-yl)oxy)-3,6,9,12-tetraoxatetradecyl)oxy)-2-(2,6-dioxopiperidin-3-yl)-6-fluoroisoindoline-1,3-dione], the “Degradation activity* (highest amount of degradation observed at any dosage; tau protein remaining)” value was “A (≤50% tau protein remaining after 72 hours of incubation with the test compound)”. The same measure, in the same setting: the result for `O=C1CCC(N2C(=O)c3ccc(N4CC(OCCCOCCCO[C@H]5C[C@H](Oc6ncc(-c7ccc8c(c7)[nH]c7ccncc78)cc6C(F)(F)F)C5)C4)cc3C2=O)C(=O)N1` (stereo partly drawn) [Compound 148, 5-(3-(3-(3-((1r,3r)-3-((5-(5H-pyrido[4,3-b]indol-7-yl)-3-(trifluoromethyl)pyridin-2-yl)oxy)cyclobutoxy)propoxy)propoxy)azetidin-1-yl)-2-(2,6-dioxopiperidin-3-yl)isoindoline-1,3-dione] reads “B (≤80% and >50% tau protein remaining after 72 hours of incubation with the test compound)”. Turning to `Cn1c2ccncc2c2ccc(-c3ccc(N4CC(OCCOCCOCCOCCOc5ccc6c(c5)C(=O)N(C5CCC(=O)NC5=O)C6=O)C4)nc3)cc21` (stereo not drawn) [Compound 208, 2-(2,6-dioxopiperidin-3-yl)-5-(2-(2-(2-(2-((1-(5-(5-methyl-5H-pyrido[4,3-b]indol-7-yl)pyridin-2-yl)azetidin-3-yl)oxy)ethoxy)ethoxy)ethoxy)ethoxy)isoindoline-1,3-dione], the “Degradation activity (tau protein remaining; highest amount of degradation observed at any dosage)” value is listed as “A (≤50% tau protein remaining after 72 hours of incubation with the test compound)”.

For the molecule `Cn1c2ccncc2c2ccc(-c3ccc(O[C@H]4C[C@H](Oc5ccc(CCCCCCOc6ccc7c(c6)C(=O)N(C6CCC(=O)NC6=O)C7=O)nc5)C4)nc3)cc21` (stereo partly drawn) [Compound 98, 2-(2,6-dioxopiperidin-3-yl)-5-((6-(5-((1r,3r)-3-((5-(5-methyl-5H-pyrido[4,3-b]indol-7-yl)pyridin-2-yl)oxy)cyclobutoxy)pyridin-2-yl)hexyl)oxy)isoindoline-1,3-dione], the “Degradation activity* (highest amount of degradation observed at any dosage; tau protein remaining)” value is “B (≤80% and >50% tau protein remaining after 72 hours of incubation with the test compound)”. For the molecule `O=C1CCC(N2C(=O)c3ccc(OCCCCCN4CCN(CCO[C@H]5C[C@@H](Oc6ccc(-c7ccc8c(c7)[nH]c7ccncc78)cn6)C5)CC4)cc3C2=O)C(=O)N1` (stereo partly drawn) [Compound 56, 5-((5-(4-(2-((1 s,3 s)-3-((5-(5H-pyrido[4,3-b]indol-7-yl)pyridin-2-yl)oxy)cyclobutoxy)ethyl)piperazin-1-yl)pentyl)oxy)-2-(2,6-dioxopiperidin-3-yl)isoindoline-1,3-dione], the “Degradation activity* (highest amount of degradation observed at any dosage; tau protein remaining)” value is on record as “C (>80% tau protein remaining after 72 hours of incubation with the test compound)”. On the same count and under the same terms, next, `Cn1c2ccncc2c2ccc(-c3ccc(N4CCC(CN5CCN(c6ccc7c(c6)CN(C6CCC(=O)NC6=O)C7=O)CC5)CC4)nc3)cc21` (stereo not drawn) [Compound 127, 3-(5-(4-((1-(5-(5-methyl-5H-pyrido[4,3-b]indol-7-yl)pyridin-2-yl)piperidin-4-yl)methyl)piperazin-1-yl)-1-oxoisoindolin-2-yl)piperidine-2,6-dione]: “C (>80% tau protein remaining after 72 hours of incubation with the test compound)”. For the molecule `Cn1c2ccncc2c2ccc(-c3ccc(OCCCCCOCCCCCO[C@H]4C[C@H](Oc5ccc6c(c5)C(=O)N(C5CCC(=O)NC5=O)C6=O)C4)nc3)cc21` (stereo partly drawn) [Compound 85, 2-(2,6-dioxopiperidin-3-yl)-5-((1r,3r)-3-((5-((5-((5-(5-methyl-5H-pyrido[4,3-b]indol-7-yl)pyridin-2-yl)oxy)pentyl)oxy)pentyl)oxy)cyclobutoxy)isoindoline-1,3-dione], the “Degradation activity* (highest amount of degradation observed at any dosage; tau protein remaining)” value was “A (≤50% tau protein remaining after 72 hours of incubation with the test compound)”. Still for that read-out and setting: the result for `Cn1c2ccncc2c2ccc(-c3ccc(O[C@H]4C[C@H](OC5CCN(CCCCCOc6ccc7c(c6)C(=O)N(C6CCC(=O)NC6=O)C7=O)CC5)C4)nc3)cc21` (stereo partly drawn) [Compound 82, 2-(2,6-dioxopiperidin-3-yl)-5-((5-(4-((1r,3r)-3-((5-(5-methyl-5H-pyrido[4,3-b]indol-7-yl)pyridin-2-yl)oxy)cyclobutoxy)piperidin-1-yl)pentyl)oxy)isoindoline-1,3-dione] reads “C (>80% tau protein remaining after 72 hours of incubation with the test compound)”; that for `Cn1c2ccncc2c2ccc(-c3cnc(OC4CCN(CCCOCCCOC5CN(c6ccc7c(c6)C(=O)N(C6CCC(=O)NC6=O)C7=O)C5)CC4)c(C(F)(F)F)c3)cc21` (stereo not drawn) [Compound 130, 2-(2,6-dioxopiperidin-3-yl)-5-(3-(3-(3-(4-((5-(5-methyl-5H-pyrido[4,3-b]indol-7-yl)-3-(trifluoromethyl)pyridin-2-yl)oxy)piperidin-1-yl)propoxy)propoxy)azetidin-1-yl)isoindoline-1,3-dione], “B (≤80% and >50% tau protein remaining after 72 hours of incubation with the test compound)”; that for `Cn1c2ccncc2c2ccc(-c3ccc(O[C@H]4C[C@@H](Oc5ccc(CCCOC6CN(c7ccc8c(c7)C(=O)N(C7CCC(=O)NC7=O)C8=O)C6)nc5)C4)nc3)cc21` (stereo partly drawn) [Compound 160, 2-(2,6-dioxopiperidin-3-yl)-5-(3-(3-(5-((1 s,3s)-3-((5-(5-methyl-5H-pyrido[4,3-b]indol-7-yl)pyridin-2-yl)oxy)cyclobutoxy)pyridin-2-yl)propoxy)azetidin-1-yl)isoindoline-1,3-dione], “B (≤80% and >50% tau protein remaining after 72 hours of incubation with the test compound)”. Same read-out and setting: next, `Cn1c2ccncc2c2ccc(-c3ccc(O[C@H]4C[C@H](OCCCCCCN5CCN(c6ccc7c(c6)C(=O)N(C6CCC(=O)NC6=O)C7=O)CC5C(F)(F)F)C4)nc3)cc21` (stereo partly drawn) [Compound 96, 2-(2,6-dioxopiperidin-3-yl)-5-(4-(6-((1r,3r)-3-((5-(5-methyl-5H-pyrido[4,3-b]indol-7-yl)pyridin-2-yl)oxy)cyclobutoxy)hexyl)-3-(trifluoromethyl)piperazin-1-yl)isoindoline-1,3-dione]: “B (≤80% and >50% tau protein remaining after 72 hours of incubation with the test compound)”; `Cn1c2ccncc2c2ccc(-c3ccc(OCCOCCOCCOCCOCCOCCOc4ccc5c(c4)C(=O)N(C4CCC(=O)NC4=O)C5=O)nc3)cc21` (stereo not drawn) [Compound 131, 2-(2,6-dioxopiperidin-3-yl)-5-((17-((5-(5-methyl-5H-pyrido[4,3-b]indol-7-yl)pyridin-2-yl)oxy)-3,6,9,12,15-pentaoxaheptadecyl)oxy)isoindoline-1,3-dione]: “A (≤50% tau protein remaining after 72 hours of incubation with the test compound)”.

The values are drawn from US11458123B2 (Arvinas, Inc., priority 2016, dated 2022).
